Among the data in PubChem BioAssay (NCI) are TGI values, retold here.

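Step 1: Grow cells in 96-well plates. Step 2: Expose to compound for 48 hours at 5 concentrations. Step 3: Interpolate endpoints linearly; if unreached, use highest concentration. The concentration for full growth arrest is given as TGI.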

Some test systems named below: SNB-78 CNS; U251 CNS; KM20L2 colon; P388/ADR leukemia; CAKI-1 renal; BT-549 breast; M14 melanoma; HS 578T breast; T-47D breast.
What all share (assay): NCI tumour cell line growth inhibition, 48 h

With `Cc1[nH]c(=O)[nH]c(=O)c1/C=C/C(=O)O` (tested in a mixture with another compound), the TGI with SNB-78 CNS, in the experiment with U251 CNS, with KM20L2 colon, with P388/ADR leukemia and in the experiment on CAKI-1 renal was over 625 µM throughout.

With `O=c1[nH]nc(NCc2ccccc2)c2nnn(Cc3ccccc3)c12`, the TGI with BT-549 breast, with U251 CNS, in the experiment with M14 melanoma and in the experiment on CAKI-1 renal was over 100 µM in each case.

For `COc1nc2cccc(C(O)c3ccccc3)c2nc1-c1ccccc1` (stereo not given), the TGI in the experiment with BT-549 breast stood at 46.3 µM; with U251 CNS, 16.8 µM; with HS 578T breast, 5.62 µM; with M14 melanoma it was 21.2 µM; in the experiment with T-47D breast it was 61.6 µM; with CAKI-1 renal, 63.8 µM.

For the molecule `CSCC[C@@H]1C(=O)N(C)[C@H](C(C)(C)C)N1C(=O)c1ccccc1`, the TGI with SNB-78 CNS, in the experiment on U251 CNS and in the experiment with KM20L2 colon was over 100 µM each time.

Take `OCC1COc2cc(Cl)c(Cl)cc2O1` (stereo not given): the TGI in the experiment with U251 CNS, in the experiment on HS 578T breast, in the experiment on M14 melanoma, in the experiment with T-47D breast and in the experiment with CAKI-1 renal was over 10 µM each time.

`COc1cc(C2c3cc4c(cc3[C@@H](Nc3cccc(CO)c3)C3COC(=O)[C@H]23)OCO4)cc(OC)c1O` (stereo not given in full): the TGI worked out at 1.86 µM in the experiment with P388/ADR leukemia and 1.91 µM in the experiment on CAKI-1 renal.
